Experimental data published in US20260176320A1, “MODULATORS OF G-PROTEIN COUPLED RECEPTORS” (priority 2018, published 2026).
Where two headings read alike, the source gives them in different places.

What was measured:
Type in all cases: cell-based
GLP-1R [1] = molecular target: T1, GLP-1R (Homo sapiens, UniProt P43220); assay: HitHunter cAMP assay (GLP-1R); conditions: cAMP; for Emax: read-out: (Emax) GLP-1R
Outline: (§1)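 Agonist stimulation lasts 30 min at room temperature on 10,000 cells per well, with phosphodiesterase blocked by 625 μM IBMX. Accumulated cAMP is quantified by competitive antibody luminescence after overnight development.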

GIP-R = molecular target: T2, GIP-R (Homo sapiens, UniProt P48546); assay: HitHunter cAMP assay (GIP-R); conditions: cAMP; for Emax: read-out: (Emax) GIP-R
T2 sequence (P48546 22-466): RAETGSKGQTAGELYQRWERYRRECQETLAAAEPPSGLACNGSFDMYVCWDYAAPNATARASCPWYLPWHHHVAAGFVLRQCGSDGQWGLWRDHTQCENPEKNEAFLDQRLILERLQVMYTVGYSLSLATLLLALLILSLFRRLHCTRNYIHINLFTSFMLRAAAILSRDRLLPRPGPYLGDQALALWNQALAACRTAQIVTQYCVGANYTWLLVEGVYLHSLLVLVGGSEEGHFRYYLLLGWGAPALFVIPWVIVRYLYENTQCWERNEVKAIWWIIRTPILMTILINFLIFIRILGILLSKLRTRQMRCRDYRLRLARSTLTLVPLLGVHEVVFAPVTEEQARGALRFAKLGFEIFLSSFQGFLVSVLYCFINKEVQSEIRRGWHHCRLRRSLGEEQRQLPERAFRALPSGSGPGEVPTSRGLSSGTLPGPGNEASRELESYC
Outline: as §1

GLP-1R [2] = molecular target: T1, GLP-1R; assay: PathHunter β-arrestin assay
Outline: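 Recruitment of β-arrestin is measured by luminescence after cells, plated overnight, receive serially diluted agonist for 90 min at 37 °C in medium with 0.2% BSA. Detection reagent then develops for 3 h at room temperature, protected from light.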

[3] = Table 3, read-out: EC50 GLP-1R/nM
[4] = Table 3A, read-out: EC50 GLP-1R/nM
[5] = Table 3, read-out: EC50 GIP-R/nM
[6] = Table 3A, read-out: EC50 GIP-R/nM
[7] = PathHunter β-arrestin assay, read-out: β-arrestin activity EC50

T1 sequence (P43220 24-463): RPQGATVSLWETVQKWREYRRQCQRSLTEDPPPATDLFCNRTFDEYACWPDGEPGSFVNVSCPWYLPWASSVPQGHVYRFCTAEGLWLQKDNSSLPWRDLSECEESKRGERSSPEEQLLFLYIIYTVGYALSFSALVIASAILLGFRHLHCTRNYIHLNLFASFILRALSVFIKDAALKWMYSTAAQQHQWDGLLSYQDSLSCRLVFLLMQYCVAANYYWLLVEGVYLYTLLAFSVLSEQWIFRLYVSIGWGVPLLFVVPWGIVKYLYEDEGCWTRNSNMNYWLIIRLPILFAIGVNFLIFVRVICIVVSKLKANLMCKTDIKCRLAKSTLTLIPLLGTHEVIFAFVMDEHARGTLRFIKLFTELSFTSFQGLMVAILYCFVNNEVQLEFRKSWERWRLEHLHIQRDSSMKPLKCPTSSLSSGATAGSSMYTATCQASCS

SMILES | Emax (GLP-1R [1]; Table 3) | EC50 (GLP-1R [1]; [3]) | Emax (GLP-1R [1]; Table 3A) | EC50 (GLP-1R [1]; [4]) | Emax (GIP-R; Table 3) | EC50 (GIP-R; [5]) | Emax (GIP-R; Table 3A) | EC50 (GIP-R; [6]) | EC50 (GLP-1R [2]; [7]) | EC50 (GLP-1R [1]; EC50 GLP-1R/nM, Table 3A) | EC50 (GIP-R; EC50 GIP-R/nM, Table 3A) | EC50 (GLP-1R [2]) | EC50 (GLP-1R [1]; EC50 GLP-1R/nM, Table 3) | EC50 (GIP-R; EC50 GIP-R/nM, Table 3)
CCCCCCCCCCCCCCCC(=O)N[C@@H](CCC(=O)NCCCC[C@H](NC(=O)[C@H](CO)NC(=O)[C@@H]1CCCN1C(=O)[C@@H]1CCCN1C(=O)[C@@H]1CCCN1C(=O)[C@H](C)NC(=O)CNC(=O)[C@H](CO)NC(=O)[C@H](CO)NC(=O)[C@@H]1CCCN1C(=O)CNC(=O)CNC(=O)[C@H](C)NC(=O)[C@H](CC(C)C)NC(=O)[C@H](CC(C)C)NC(=O)[C@H](Cc1c[nH]c2ccccc12)NC(=O)[C@H](CC(N)=O)NC(=O)[C@@H](NC(=O)[C@H](Cc1ccccc1)NC(=O)[C@H](CCC(=O)O)NC(=O)C(C)(C)NC(=O)[C@H](C)NC(=O)[C@H](C)NC(=O)[C@H](CCC(N)=O)NC(=O)[C@H](CCCCN)NC(=O)[C@H](CC(=O)O)NC(=O)[C@H](CC(C)C)NC(=O)[C@H](Cc1ccc(O)cc1)NC(=O)[C@@H](NC(=O)[C@H](CO)NC(=O)[C@H](Cc1ccc(O)cc1)NC(=O)[C@H](CC(=O)O)NC(=O)[C@H](CO)NC(=O)[C@@H](NC(=O)[C@H](Cc1ccccc1)NC(=O)[C@@H](NC(=O)CNC(=O)[C@H](CCC(=O)O)NC(=O)CSCC(=O)NCCN1CCOC1=O)[C@@H](C)O)[C@@H](C)O)[C@@H](C)CC)C(C)C)C(N)=O)C(=O)O [Compound 39] | 102 to 104% | < 1 nM | 102 to 104% | < 1 nM | 40 to 60% | 0.1 to 10 nM | 40 to 60% | 0.1 to 10 nM | > 1000 nM | – | – | – | – | –
CCCCCCCCCCCCCCCC(=O)N[C@@H](CCC(=O)NCCCC[C@H](NC(=O)[C@H](CO)NC(=O)[C@@H]1CCCN1C(=O)[C@@H]1CCCN1C(=O)[C@@H]1CCCN1C(=O)[C@H](C)NC(=O)CNC(=O)[C@H](CO)NC(=O)[C@H](CO)NC(=O)[C@@H]1CCCN1C(=O)CNC(=O)CNC(=O)[C@H](C)NC(=O)[C@H](CC(C)C)NC(=O)[C@H](CC(C)C)NC(=O)[C@H](Cc1c[nH]c2ccccc12)NC(=O)[C@H](CC(N)=O)NC(=O)[C@@H](NC(=O)[C@H](Cc1ccccc1)NC(=O)[C@H](CCC(=O)O)NC(=O)C(C)(C)NC(=O)[C@H](C)NC(=O)[C@H](C)NC(=O)[C@H](CCC(N)=O)NC(=O)[C@H](CCCCN)NC(=O)[C@H](CC(=O)O)NC(=O)[C@H](CC(C)C)NC(=O)[C@H](Cc1ccc(O)cc1)NC(=O)[C@@H](NC(=O)[C@H](CO)NC(=O)[C@H](Cc1ccc(O)cc1)NC(=O)[C@H](CC(=O)O)NC(=O)[C@H](CO)NC(=O)[C@@H](NC(=O)[C@H](Cc1ccccc1)NC(=O)[C@@H](NC(=O)CNC(=O)[C@H](CCC(=O)O)NC(=O)CSCC(=O)NCCn1cc(C)ccc1=O)[C@@H](C)O)[C@@H](C)O)[C@@H](C)CC)C(C)C)C(N)=O)C(=O)O [Compound 238] | – | – | 95% | – | – | – | 82% | – | – | 0.1 to 1 nM | 1 to 10 nM | > 1000 nM | – | –
CCCCCCCCCCCCCCCC(=O)N[C@@H](CCC(=O)NCCCC[C@H](NC(=O)[C@H](CO)NC(=O)[C@@H]1CCCN1C(=O)[C@@H]1CCCN1C(=O)[C@@H]1CCCN1C(=O)[C@H](C)NC(=O)CNC(=O)[C@H](CO)NC(=O)[C@H](CO)NC(=O)[C@@H]1CCCN1C(=O)CNC(=O)CNC(=O)[C@H](C)NC(=O)[C@H](CC(C)C)NC(=O)[C@H](CC(C)C)NC(=O)[C@H](Cc1c[nH]c2ccccc12)NC(=O)[C@H](CC(N)=O)NC(=O)[C@@H](NC(=O)[C@H](Cc1ccccc1)NC(=O)[C@H](CCC(=O)O)NC(=O)C(C)(C)NC(=O)[C@H](C)NC(=O)[C@H](C)NC(=O)[C@H](CCC(N)=O)NC(=O)[C@H](CCCCN)NC(=O)[C@H](CC(=O)O)NC(=O)[C@H](CC(C)C)NC(=O)[C@H](Cc1ccc(O)cc1)NC(=O)[C@@H](NC(=O)[C@H](CO)NC(=O)[C@H](Cc1ccc(O)cc1)NC(=O)[C@H](CC(=O)O)NC(=O)[C@H](CO)NC(=O)[C@@H](NC(=O)[C@H](Cc1ccccc1)NC(=O)[C@@H](NC(=O)CNC(=O)[C@H](CCC(=O)O)NC(=O)C(C)(C)CC(=O)NCCN1CCOCC1=O)[C@@H](C)O)[C@@H](C)O)[C@@H](C)CC)C(C)C)C(N)=O)C(=O)O [Compound 244] | – | – | 100% | < 0.1 nM | – | – | 50% | 1 to 10 nM | 10 to 1000 nM | – | – | – | – | –
CC[C@H](C)[C@H](NC(=O)[C@H](CO)NC(=O)[C@H](Cc1ccc(O)cc1)NC(=O)[C@H](CC(=O)O)NC(=O)[C@H](CO)NC(=O)[C@@H](NC(=O)[C@H](Cc1ccccc1)NC(=O)[C@@H](NC(=O)CNC(=O)[C@H](CCC(=O)O)NC(=O)C(C)(C)C(=O)NCCn1ncc2ccccc2c1=O)[C@@H](C)O)[C@@H](C)O)C(=O)N[C@@H](Cc1ccc(O)cc1)C(=O)N[C@@H](CC(C)C)C(=O)N[C@@H](CC(=O)O)C(=O)N[C@@H](CCCCN)C(=O)N[C@@H](CCC(N)=O)C(=O)N[C@@H](C)C(=O)N[C@@H](C)C(=O)NC(C)(C)C(=O)N[C@@H](CCC(=O)O)C(=O)N[C@@H](Cc1ccccc1)C(=O)N[C@H](C(=O)N[C@@H](CC(N)=O)C(=O)N[C@@H](Cc1c[nH]c2ccccc12)C(=O)N[C@@H](CC(C)C)C(=O)N[C@@H](CC(C)C)C(=O)N[C@@H](C)C(=O)NCC(=O)NCC(=O)N1CCC[C@H]1C(=O)N[C@@H](CO)C(=O)N[C@@H](CO)C(=O)NCC(=O)N[C@@H](C)C(=O)N1CCC[C@H]1C(=O)N1CCC[C@H]1C(=O)N1CCC[C@H]1C(=O)N[C@@H](CO)C(=O)N[C@@H](CCCCN)C(N)=O)C(C)C [Compound 116] | 98% | – | 98% | – | 50% | – | 50% | – | – | < 0.1 nM | 10 to 100 nM | > 1000 nM | < 0.1 nM | 10 to 100 nM
CC[C@H](C)[C@H](NC(=O)[C@H](CO)NC(=O)[C@H](Cc1ccc(O)cc1)NC(=O)[C@H](CC(=O)O)NC(=O)[C@H](CO)NC(=O)[C@@H](NC(=O)[C@H](Cc1ccccc1)NC(=O)[C@@H](NC(=O)CNC(=O)[C@H](CCC(=O)O)NC(=O)C1(C(=O)NCCN2C(=O)CSC2=O)CCCCC1)[C@@H](C)O)[C@@H](C)O)C(=O)N[C@@H](Cc1ccc(O)cc1)C(=O)N[C@@H](CC(C)C)C(=O)N[C@@H](CC(=O)O)C(=O)N[C@@H](CCCCN)C(=O)N[C@@H](CCC(N)=O)C(=O)N[C@@H](C)C(=O)N[C@@H](C)C(=O)NC(C)(C)C(=O)N[C@@H](CCC(=O)O)C(=O)N[C@@H](Cc1ccccc1)C(=O)N[C@H](C(=O)N[C@@H](CC(N)=O)C(=O)N[C@@H](Cc1c[nH]c2ccccc12)C(=O)N[C@@H](CC(C)C)C(=O)N[C@@H](CC(C)C)C(=O)N[C@@H](C)C(=O)NCC(=O)NCC(=O)N1CCC[C@H]1C(=O)N[C@@H](CO)C(=O)N[C@@H](CO)C(=O)NCC(=O)N[C@@H](C)C(=O)N1CCC[C@H]1C(=O)N1CCC[C@H]1C(=O)N1CCC[C@H]1C(=O)N[C@@H](CO)C(=O)N[C@@H](CCCCN)C(N)=O)C(C)C [Compound 119] | 97% | < 0.1 nM | 97% | < 0.1 nM | 41% | 1 to 10 nM | 41% | 10 to 100 nM | < 10 nM | – | – | – | – | –
CCCCCCCCCCCCCCCC(=O)N[C@@H](CCC(=O)NCCCC[C@H](NC(=O)[C@H](CO)NC(=O)[C@@H]1CCCN1C(=O)[C@@H]1CCCN1C(=O)[C@@H]1CCCN1C(=O)[C@H](C)NC(=O)CNC(=O)[C@H](CO)NC(=O)[C@H](CO)NC(=O)[C@@H]1CCCN1C(=O)CNC(=O)CNC(=O)[C@H](C)NC(=O)[C@H](CC(C)C)NC(=O)[C@H](CC(C)C)NC(=O)[C@H](Cc1c[nH]c2ccccc12)NC(=O)[C@H](CC(N)=O)NC(=O)[C@@H](NC(=O)[C@H](Cc1ccccc1)NC(=O)[C@H](CCC(=O)O)NC(=O)C(C)(C)NC(=O)[C@H](C)NC(=O)[C@H](C)NC(=O)[C@H](CCC(N)=O)NC(=O)[C@H](CCCCN)NC(=O)[C@H](CC(=O)O)NC(=O)[C@H](CC(C)C)NC(=O)[C@H](Cc1ccc(O)cc1)NC(=O)[C@@H](NC(=O)[C@H](CO)NC(=O)[C@H](Cc1ccc(O)cc1)NC(=O)[C@H](CC(=O)O)NC(=O)[C@H](CO)NC(=O)[C@@H](NC(=O)[C@H](Cc1ccccc1)NC(=O)[C@@H](NC(=O)CNC(=O)[C@H](CCC(=O)O)NC(=O)CN(C)C(=O)CN1CCCCC1=O)[C@@H](C)O)[C@@H](C)O)[C@@H](C)CC)C(C)C)C(N)=O)C(=O)O [Compound 205] | – | – | – | < 0.1 nM | – | – | 61% | 1 to 10 nM | > 1000 nM | – | – | – | – | –
